Laboratory results as given in ChEMBL document CHEMBL1201862, “PubChem BioAssay data set” (2004).
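Assay format: 96-well plates, 48-hour exposure. GI50 is the concentration that inhibits growth by half.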 The source made the active and inactive calls. No stated cut-off is given here; in the data, active = GI50 up to about 1.1 µM and inactive = higher.

Columns and labels:
Test in all cases: NCI anticancer screen, dose series, 48 h
[1] = system: 786-0
[2] = system: A498
[3] = system: A549
[4] = system: ACHN
[5] = system: BT-549
[6] = system: CAKI-1
[7] = system: CCRF-CEM
[8] = system: COLO 205
[9] = system: DU-145
[10] = system: EKVX
[11] = system: HCC 2998
[12] = system: HCT-116
[13] = system: HCT-15
[14] = system: HL-60
[15] = system: HOP-62
[16] = system: HOP-92
[17] = system: HT-29
[18] = system: Hs-578T
[19] = system: IGROV-1
[20] = system: K562
[21] = system: KM12
[22] = system: LOX IMVI
[23] = system: M14
[24] = system: MCF7
[25] = system: MDA-MB-231
[26] = system: MDA-MB-435
[27] = system: MDA-N
[28] = system: MOLT-4
[29] = system: Malme-3M
[30] = system: NCI-H226
[31] = system: NCI-H23
[32] = system: NCI-H460
[33] = system: NCI-H522
[34] = system: NCI/ADR-RES
[35] = system: OVCAR-3
[36] = system: OVCAR-4
[37] = system: OVCAR-5
[38] = system: OVCAR-8
[39] = system: PC-3
[40] = system: RPMI-8226
[41] = system: RXF 393
[42] = system: SF-268
[43] = system: SF-295
[44] = system: SF-539
[45] = system: SK-MEL-28
[46] = system: SK-MEL-2
[47] = system: SK-MEL-5
[48] = system: SK-OV-3
[49] = system: SN12C
[50] = system: SNB-19
[51] = system: SNB-75
[52] = system: SR
[53] = system: SW-620
[54] = system: T47D
[55] = system: TK-10
[56] = system: U-251
[57] = system: UACC-257
[58] = system: UACC-62
[59] = system: UO-31
[60] = system: DLD-1
[61] = system: LXFL 529
[62] = system: M19-MEL

## CC1CNC(c2cccc(-c3nc(-c4cccc(C5=NC(C)CN5)c4)nc(N(C)C)n3)c2)=N1 (stereo not given)
[1]
  GI50: 1530 nM (inactive)
[2]
  GI50: 2050 nM (inactive)
[3]
  GI50: 2690 nM (inactive)
[4]
  GI50: 3120 nM (inactive)
[5]
  GI50: 3190 nM (inactive)
[6]
  GI50: 18100 nM (inactive)
[7]
  GI50: 587 nM (active)
[8]
  GI50: 1200 nM (inactive)
[9]
  GI50: 2090 nM (inactive)
[10]
  GI50: 2230 nM (inactive)
[11]
  GI50: 1130 nM (inactive)
[12]
  GI50: 491 nM (active)
[13]
  GI50: 8340 nM
[14]
  GI50: 2020 nM (inactive)
[15]
  GI50: 1080 nM (active)
[16]
  GI50: 3870 nM (inactive)
[17]
  GI50: 895 nM (active)
[18]
  GI50: 2740 nM (inactive)
[19]
  GI50: 3280 nM (inactive)
[20]
  GI50: 682 nM (active)
[21]
  GI50: 1670 nM (inactive)
[22]
  GI50: 1120 nM (inactive)
[23]
  GI50: 3500 nM (inactive)
[24]
  GI50: 780 nM (active)
[25]
  GI50: 1320 nM (inactive)
[26]
  GI50: 1190 nM (inactive)
[27]
  GI50: 1520 nM (inactive)
[28]
  GI50: 373 nM (active)
[29]
  GI50: 3870 nM (inactive)
[30]
  GI50: 1900 nM (inactive)
[31]
  GI50: 2140 nM (inactive)
[32]
  GI50: 1940 nM (inactive)
[33]
  GI50: 757 nM (active)
[34]
  GI50: 16500 nM (inactive)
[35]
  GI50: 1530 nM (inactive)
[36]
  GI50: 771 nM (active)
[37]
  GI50: 2570 nM (inactive)
[38]
  GI50: 2150 nM (inactive)
[39]
  GI50: 671 nM (active)
[40]
  GI50: 2750 nM (inactive)
[41]
  GI50: 3210 nM (inactive)
[42]
  GI50: 2060 nM (inactive)
[43]
  GI50: 3610 nM (inactive)
[44]
  GI50: 454 nM (active)
[45]
  GI50: 3130 nM (inactive)
[46]
  GI50: 2020 nM (inactive)
[47]
  GI50: 2590 nM (inactive)
[48]
  GI50: 1580 nM (inactive)
[49]
  GI50: 948 nM (active)
[50]
  GI50: 752 nM (active)
[51]
  GI50: 1910 nM (inactive)
[52]
  GI50: 450 nM (active)
[53]
  GI50: 721 nM (active)
[54]
  GI50: 2500 nM (inactive)
[55]
  GI50: 2780 nM (inactive)
[56]
  GI50: 653 nM (active)
[57]
  GI50: 3160 nM (inactive)
[58]
  GI50: 1820 nM (inactive)
[59]
  GI50: 3770 nM (inactive)

## CC(=O)Nc1ccc(C(=O)NN2C(=O)C(Cl)C2c2cccc([N+](=O)[O-])c2)cc1 (stereo not given)
[3]
  GI50: > 100000 nM (inactive)
[4]
  GI50: > 100000 nM (inactive)
[7]
  GI50: > 100000 nM (inactive)
[8]
  GI50: > 100000 nM (inactive)
[60]
  GI50: > 100000 nM (inactive)
[11]
  GI50: > 100000 nM (inactive)
[12]
  GI50: > 100000 nM (inactive)
[14]
  GI50: > 100000 nM (inactive)
[15]
  GI50: > 100000 nM (inactive)
[16]
  GI50: > 100000 nM (inactive)
[17]
  GI50: > 100000 nM (inactive)
[19]
  GI50: > 100000 nM (inactive)
[20]
  GI50: > 100000 nM (inactive)
[21]
  GI50: > 100000 nM (inactive)
[61]
  GI50: > 100000 nM (inactive)
[62]
  GI50: > 100000 nM (inactive)
[28]
  GI50: > 100000 nM (inactive)
[29]
  GI50: > 100000 nM (inactive)
[30]
  GI50: > 100000 nM (inactive)
[31]
  GI50: > 100000 nM (inactive)
[32]
  GI50: > 100000 nM (inactive)
[33]
  GI50: > 100000 nM (inactive)
[35]
  GI50: > 100000 nM (inactive)
[37]
  GI50: > 100000 nM (inactive)
[38]
  GI50: > 100000 nM (inactive)
[40]
  GI50: > 100000 nM (inactive)
[42]
  GI50: > 100000 nM (inactive)
[43]
  GI50: > 100000 nM (inactive)
[44]
  GI50: > 100000 nM (inactive)
[45]
  GI50: > 100000 nM (inactive)
[46]
  GI50: > 100000 nM (inactive)
[47]
  GI50: > 100000 nM (inactive)
[48]
  GI50: > 100000 nM (inactive)
[50]
  GI50: > 100000 nM (inactive)
[51]
  GI50: > 100000 nM (inactive)
[52]
  GI50: > 100000 nM (inactive)
[53]
  GI50: > 100000 nM (inactive)
[55]
  GI50: > 100000 nM (inactive)
[56]
  GI50: > 100000 nM (inactive)
[57]
  GI50: > 100000 nM (inactive)
[58]
  GI50: > 100000 nM (inactive)
[59]
  GI50: > 100000 nM (inactive)

## COc1ccc2c(c1)Cc1c(NCCN(C)C)ccc(C(=O)NCCCN(C)CCCNC(=O)c3ccc(NCCN(C)C)c4c3Nc3ccc(OC)cc3C4)c1N2
[1]
  GI50: < 10 nM (active)
[2]
  GI50: < 40.4 nM (active)
[3]
  GI50: < 10 nM (active)
[4]
  GI50: 34.3 nM (active)
[5]
  GI50: 148 nM (active)
[6]
  GI50: 753 nM (active)
[7]
  GI50: < 39.3 nM (active)
[8]
  GI50: < 10 nM (active)
[9]
  GI50: < 10 nM (active)
[10]
  GI50: 116 nM (active)
[11]
  GI50: < 10 nM (active)
[12]
  GI50: < 10 nM (active)
[13]
  GI50: 728 nM
[14]
  GI50: 35.8 nM (active)
[15]
  GI50: < 10 nM (active)
[16]
  GI50: 143 nM (active)
[17]
  GI50: < 10 nM (active)
[18]
  GI50: < 10 nM (active)
[19]
  GI50: < 10 nM (active)
[20]
  GI50: < 11 nM (active)
[21]
  GI50: < 10 nM (active)
[22]
  GI50: < 10 nM (active)
[23]
  GI50: 150 nM (active)
[24]
  GI50: < 10 nM (active)
[25]
  GI50: 32.2 nM (active)
[26]
  GI50: < 10 nM (active)
[27]
  GI50: < 10 nM (active)
[28]
  GI50: < 10 nM (active)
[29]
  GI50: < 10 nM (active)
[30]
  GI50: < 25.4 nM (active)
[31]
  GI50: < 21.2 nM (active)
[32]
  GI50: < 10 nM (active)
[33]
  GI50: < 10 nM (active)
[34]
  GI50: 4200 nM (inactive)
[35]
  GI50: < 18.7 nM (active)
[36]
  GI50: < 18.4 nM (active)
[37]
  GI50: < 24.8 nM (active)
[38]
  GI50: < 10 nM (active)
[39]
  GI50: < 10 nM (active)
[40]
  GI50: < 10 nM (active)
[41]
  GI50: 154 nM (active)
[42]
  GI50: < 10 nM (active)
[43]
  GI50: 21.3 nM (active)
[44]
  GI50: 209 nM (active)
[45]
  GI50: 142 nM (active)
[46]
  GI50: < 10 nM (active)
[47]
  GI50: 29.9 nM (active)
[48]
  GI50: < 10 nM (active)
[49]
  GI50: < 10 nM (active)
[50]
  GI50: < 10 nM (active)
[51]
  GI50: < 10 nM (active)
[52]
  GI50: < 10 nM (active)
[53]
  GI50: < 15.8 nM (active)
[54]
  GI50: 150 nM (active)
[55]
  GI50: 72.4 nM (active)
[56]
  GI50: < 10 nM (active)
[57]
  GI50: 30.3 nM (active)
[58]
  GI50: < 22.8 nM (active)
[59]
  GI50: 362 nM (active)
